Values of other authors in patent US20090291958A1, “Substituted PDE5 inhibitors” (Auspex Pharmaceuticals, Inc., priority 2006, published 2009).

Experiments:
[1] = in vivo
[2] = system: PDE6; conditions: share of patients; attributed to PDE6 modulation
[3] = system: PDE5 versus PDE6; conditions: compared with sildenafil and vardenafil
[4] = in vivo; remark: listed apart in the source

Q: For `CN1CC(=O)N2[C@H](c3ccc4c(c3)OCO4)c3[nH]c4ccccc4c3C[C@@H]2C1=O` [tadalafil, Tadalafil], which half-life [1] is on record?
A: Its half-life is 17.5 h.

Q: What about the “patients with side effects of chromatopsia, increased sensitivity to light, and blurred vision” value [2] of the same compound?
A: Its value is “less than 0.1%”.

Q: And the “selectivity for PDE5 versus PDE6” value [3]?
A: Its value is “much more selective than sildenafil and vardenafil”.

Q: And the exercise tolerance [4]?
A: Its exercise tolerance is “improve exercise tolerance”.

Q: And the “rate of myocardial infarction” value [4]?
A: Its value is “lower rate of myocardial infarction than placebo”.
